Reference: US11369596B2, “Methods of treating a neurodegenerative disease in a mammal in need thereof” (Thomas Jefferson University, priority 2013, dated 2022)

How the values were obtained:
SOD1-G93A mice [1] = tested on: SOD1-G93A mice
Method: Drug Treatment and Survival Analysis:
Baseline and study measures were recorded for weight, grip strength, food consumption, and survival. Determination of end-stage was the inability for a mouse to right itself after 30 seconds of being placed on its side.

liver of SOD1-G93A mice = details: mouse, in vivo
Method: Periodic Acid Schiff Staining:
Saline perfused liver was postfixed with 4% paraformaldehyde for 24 h followed by 24 h incubation in 30% sucrose solution, embedded in OCT solution, and stored at −80° C. until sectioned (10 μm thickness). Sections were hydrated with water, immersed in PAS solutions (Sigma; 395) for 5 min at room temperature, and washed in water. Sections were immersed for 4 min in Schiff's reagent and washed in water for 5 min. Sections were counterstained with hematoxylin solution, dehydrated in ethanol and HemoD solution, mounted, and imaged.

SOD1-G93A mice [2] = assay: Compound muscle action potential (CMAP) recordings; type: in vivo; details: 140 day SOD1-G93A mice
From the text: Compound Muscle Action Potential (CMAP) Recordings:
Mice were anesthetized with 1% isoflurane and 0.5% oxygen. Following dermatomoty, stainless steel-stimulating needle electrodes were inserted at the sciatic notch, near the sciatic nerve. A ground electrode was placed subcutaneously in the back, and a reference electrode placed subcutaneously at the ankle. The sciatic nerve was stimulated (0.2 ms duration; 1.6 mV amplitude) and the response recorded via a needle electrode inserted into the plantar muscle in the medial half of the foot, following the line connecting the first and fifth tarsal/metatarsal joints. Data was collected using ADI Powerlab 8/30 stimulator and BioAMP amplifier (ADInstruments, Colorado Springs, Colo.) and analyzed using Scope 3.5.6 (ADInstruments). The compound muscle action potential (M-wave) amplitude was measured from baseline to peak. Data was averaged between left and right hind limb traces.

ALS = ALS patients; cited from earlier work

| Structure (SMILES) | effect on disease progression / survival (SOD1-G93A mice [1]; chronic elacridar alone, beginning at disease onset, SOD1-G93A mice) | safety of chronic treatment (SOD1-G93A mice [1]; mouse, in vivo) | liver toxicity (periodic acid Schiff staining) (liver of SOD1-G93A mice) | CMAP peak amplitude (SOD1-G93A mice [2]) | slowing of disease progression (ALS) |
| --- | --- | --- | --- | --- | --- |
| COc1cc2c(cc1OC)CN(CCc1ccc(NC(=O)c3cccc4c(=O)c5cccc(OC)c5[nH]c34)cc1)CC2 [elacridar, N-[4-[2-(3,4-dihydro-6,7-dimethoxy-2(1H)-isoquinolinyl)ethyl]phenyl]-9,10-dihydro-5-methoxy-9-oxo-4-acridine carboxamide] | did not alter disease progression | safe | did not cause liver toxicity |  |  |
| Nc1nc2ccc(OC(F)(F)F)cc2s1 [riluzole, 6-(trifluoromethoxy)benzothiazol-2-amine] |  |  |  | 5.00±0.67 mV | 3-9 months |
